The test system of the assay is contracting CMs (cardiomyocytes). Kind of assay: P-CeG (plasmonic cardio-eukaryography) signal of contracting cardiomyocytes cultured on gold SPR sensor, consecutive drug injections. It is filed as cell-based. From the text:
The device as shown in FIGS. 1(a) and 1(c) was used for experiments and studies. The device had dimensions of 12 cm×7.5 cm×5 cm and had micro LEDs, LED splitters, micro prisms, micro polarizers, and micro detectors that induced plasmonic waveguides and detected changes in the electrical/mechanical activity of a cell membrane. Cellular function of mechanical and electrical origins was filtered and sorted using software in operable communication with the sensing platform, and was then compared to the physiological parameters of a healthy cell. […] The hinged cap (fluidic module) had heavy-duty gaskets made from PDMS attached thereto. Micropumps and microtubing on the were used to drive the flow of the cell medium from its attached reservoir. The base of the device acted as a Faraday cage for the micro settings of plasmonic induction and detection, as well as related PCB boards and computer interface connectors of the sensing platform. The refraction index of the prisms was […] (each prism was a BK7 prism from a BI2000 device (Biosensing Instruments, AZ). The cell-SPR model discussed herein with reference to FIGS. 2(a)-2(f) was used as the cell-SPR model for experiments.
Empirical P-CeG data was correlated to the mathematical model of charge distribution near CM's cell membrane. FIG. 10(a) illustrates the four phases in a CM's action potential, field potential, and force of contraction profile (top to bottom, respectively) over time. The dashed vertical lines show phases 0, 1, 2, and 3 of the CM's electromechanical activities. […] Values were extracted using equations from the cell-SPR model. […] Arrows from left to right in the bottom graph depict the depolarization amplitude (DA), field potential duration (FPD), and the repolarization amplitude (RA) as the main features of a CM's field potential. These are also elaborated on in FIG. 10(e) and FIG. 10(f).
Feature extraction was performed on a P-CeG signal and its correlated charge profile of contracting CMs. FIGS. 11(a), 11(b), and 11(c) show amplitude, full width at half maximum (FWHM), and inter-beat intervals (IBI), respectively, for a 100-second epoch from the P-CeG signal obtained from 12 CM-cultured gold sensors. The high variability of values across different sensors is due to the selected methodology for cell isolation and non-ideal experimental conditions (room temperature and without CO2). FIGS. 11(d), 11(e), and 11(f) show DA, RA, and FPD of contracting CMs obtained from their charge profile.
Analysis was performed using blebbistatin as the cells to be analyzed. Consecutive injections of 1 micromolar (04), 3 μM, 5 μM, 7 and 9 μM blebbistatin were performed, and the P-CeG signals were recorded and analyzed. […] A decrease of the control sample's amplitude and high variability in the FWHM of data with time indicate decreased cellular functionality due to non-ideal experimental conditions. Average data are reported as mean±std: 1-way ANOVA, p<0.0001, 95% CI.
Analysis was performed using verapamil as the cells to be analyzed. Consecutive injections of 50 nanomolar (nM), 100 nM, 200 nM, and 500 nM verapamil were performed, and the P-CeG signals were recorded and analyzed. […] Average data are reported as mean±std: 1-way ANOVA, p<0.0001, 95% CI. […] Referring to FIGS. 14(k) and 14(l), an increase in FPD and FWHM of the signals is distinctly observable with increasing verapamil concentrations.
Analysis was performed using caffeine as the cells to be analyzed. Consecutive injections of 2 millimolar (mM), 4 mM, 6 mM, and 8 mM caffeine were performed, and the P-CeG signals were recorded and analyzed. […] Average data are reported as mean±std: 1-way ANOVA, p<0.0001, 95% CI.

As for `Cc1ccc2c(c1)C(=O)C1(O)CCN(c3ccccc3)C1=N2` (stereo not drawn) [blebbistatin], the “P-CeG signal amplitude (refractive index change)” value (consecutive injections of 1, 3, 5, 7 and 9 μM blebbistatin vs control, FIGS. 13(a), 13(b), 13(d)) was “continuous decrease in signal amplitude”. For the same molecule, the “signal's peak amplitudes (normalized refractive angle change)” value (five concentrations of blebbistatin 1-9 μM, FIG. 13(i)) was “decreased”. The FWHM duration result (five concentrations of blebbistatin 1-9 μM, FIG. 13(j)) is given as “higher variability”. The “cell signaling rate (action potential per minute, APM)” value (five concentrations of blebbistatin 1-9 μM, FIG. 13(k)) was “relatively unchanged”. For the same molecule, the “depolarization amplitude (DA)” value (increasing blebbistatin concentrations 1-9 μM, FIG. 13(f)) is on record as “no significant difference”. The “repolarization amplitude (RA)” value (increasing blebbistatin concentrations 1-9 μM, FIG. 13(g)) was “no significant difference”. Besides, the “field potential duration (FPD)” value (increasing blebbistatin concentrations 1-9 μM, FIG. 13(h)) was “showed a decrease”.

As for `COc1ccc(CCN(C)CCCC(C#N)(c2ccc(OC)c(OC)c2)C(C)C)cc1OC` (stereo not drawn) [verapamil], for the setting “consecutive injections of 50, 100, 200 and 500 nM verapamil vs control, FIGS. 14(a), 14(b), 14(d)”, the “P-CeG signal amplitude (refractive index change)” value is “sharp decrease in signal amplitude”. The “peak amplitudes (normalized refractive angle change)” value (increasing verapamil concentration 50-500 nM, FIG. 14(h)) is “decreased”. Further, for the setting “increasing verapamil concentration 50-500 nM, FIG. 14(i)”, the FWHM duration result was “slightly increases before it becomes undetectable and is counted as zero”. Also, for the setting “increasing verapamil concentration 50-500 nM, FIG. 14(j)”, the “cell signaling rate (action potential per minute, APM)” value is reported as “decreased”. The “depolarization amplitude (DA)” value (increasing verapamil concentrations 50-500 nM, FIG. 14(e)) is “no significant difference”. In addition, the “repolarization amplitude (RA)” value (increasing verapamil concentrations 50-500 nM, FIG. 14(f)) is “no significant difference”. The “field potential duration (FPD)” value (increasing verapamil concentrations 50-500 nM, FIG. 14(g)) was “showed an increase”.

`Cn1c(=O)c2c(ncn2C)n(C)c1=O` [caffeine]: under “consecutive injections of 2, 4, 6 and 8 mM caffeine vs control, FIGS. 15(a), 15(b), 15(d)”, the “P-CeG signal amplitude (refractive index change)” value is on record as “presence of detectable signal amplitude”. Further, the “peak amplitudes (normalized refractive angle change)” value (increased caffeine concentrations 2-8 mM, FIG. 15(i)) is “relatively unchanged”. The FWHM duration entry (increased caffeine concentrations 2-8 mM, FIG. 15(j)) was “relatively unchanged”. Moreover, for the setting “increased caffeine concentrations 2-8 mM, FIG. 15(k)”, the “cell signaling rate (action potential per minute, APM)” value is “decreases”. Also, the “depolarization amplitude (DA)” value (increasing caffeine concentrations 2-8 mM, FIG. 15(f)) was “no significant difference”. The “repolarization amplitude (RA)” value (increasing caffeine concentrations 2-8 mM, FIG. 15(g)) was “no significant difference”. Moreover, the “field potential duration (FPD)” value (increasing caffeine concentrations 2-8 mM, FIG. 15(h)) was “slight increase”.

The values are drawn from patent US11486825B1, “Devices and methods for analysis of biological matter using plasmon resonance” (THE FLORIDA INTERNATIONAL UNIVERSITY BOARD OF TRUSTEES, priority 2022, dated 2022).
